Experimental data as given in patent publication US4567293A, “2-[Para-(2-substituted or unsubstituted-3,3,3-tri-fluoropropyl)phenyl]propionic acid or a salt thereof” (Kureha Kagaku Kogyo Kabushiki Kaisha, priority 1981, dated 1986).

Legend:
[1] = system: carrageenin-induced edema; assay: Anti-inflammatory activity: inhibition of carrageenin-induced edema (Example 7, rats of 92 to 112 g); assay type: in vivo, rat (female Wister)
Protocol: […] A. Winter [refer to Proc. Soc.
(§1) An aqueous suspension of each specimen in an aqueous 1% carboxymethoxycellulose solution was orally administered to the rat in volume of 1 ml per 100 g body weight. The rat as the control group was administered with only an aqueous 1% solution of carboxymethoxycellulose. One hour after the administration, 0.1 ml of an aqueous 1% solution of carrageenin in physiological saline was injected into the plantar tissue of the right hind paw of the rat. Then, after 4 hours from the injection, the volume of the injected foot was measured to find the volume of swelling by subtracting the volume of foot before the injection from that value.
(§2) By comparing the volume of the swelling of the administered group to that of the control group, the ratio of inhibiting the swelling (I.R., %) was calculated according to the following formula: [formula] wherein T represents the average volume of swelling in the group administered with the specimen, and
(§3) C represents the average volume of swelling in the control group.

in vivo = settings: oral, mouse, in olive oil, 14 days observation
Protocol: Acute toxicity of the present compound were determined as follows.
Each of the specimens was dispersed in an olive oil. The dispersion was administered to an ICR-JCL mouse orally by a stomach sonde at a predetermined amount. After administration, the intoxication symptoms were continuously observed for 14 days. LD50 value was obtained from the cumulative mortality of the mice by applying the data to the Litchfield-Wilcoxon's graphical method.

[2] = system: carrageenin-induced edema; assay: Anti-inflammatory activity: inhibition of carrageenin-induced edema (Example 6); assay type: in vivo, rat (female Wister); settings: 4 hours after carrageenin
Protocol: Anti-inflammatory activity of the present compound was examined by using 10 female Wister rats of 110 to 130 g of body weight as one group following the method of C. A. Winter [refer to Proc. Soc. Exp. Biol. Med., 111, 544(1962)]in which the ratio of inhibiting the carrageenin-induced edema is determined.
as §1, §2, §3

Row | Compound | Inhibition of carrageenin-induced edema ([1]; oral dose 25 mg/kg) | Inhibition of carrageenin-induced edema ([1]; oral dose 100 mg/kg) | LD50 at 336 h (in vivo) | Inhibitation of carrageenin-induced edema ([2]; oral dose 25 mg/Kg) | Inhibitation of carrageenin-induced edema ([2]; oral dose 50 mg/Kg) | Inhibitation of carrageenin-induced edema ([2]; oral dose 100 mg/Kg) | Inhibitation of carrageenin-induced edema ([2]; oral dose 200 mg/Kg) | Inhibitation of carrageenin-induced edema ([2]; oral dose 2.5 mg/Kg) | Inhibitation of carrageenin-induced edema ([2]; oral dose 5 mg/Kg) | Inhibitation of carrageenin-induced edema ([2]; oral dose 10 mg/Kg)
1 | CC(=O)Oc1ccccc1C(=O)O [Specimen V, acetyl salicyclic acid, reference compound] | 10% | 28% | – | – | – | – | – | – | – | –
2 | CC(C(=O)O)c1ccc(CCC(F)(F)F)cc1 (centres unmarked) [Specimen III, 2-[p-(3,3,3-trifluoropropyl)phenyl]propionic acid] | 38% | 44% | 1000 mg/kg | – | – | – | – | – | – | –
3 | CC(C)Cc1ccc(C(C)C(=O)O)cc1 (centres unmarked) [Specimen IV, 2-(p-isobutylphenyl)propionic acid, reference compound] | – | – | – | 29% | 40% | 42% | 52% | – | – | –
4 | CC(C(=O)O)c1ccc(CC(C(F)(F)F)C(F)(F)F)cc1 (centres unmarked) [Specimen I, 2-[p-(2-trifluoromethyl-3,3,3-trifluoropropyl)phenyl]propionic acid] | – | – | 1100 mg/kg | 50% | 55% | 57% | 63% | 37% | 40% | 46%
5 | CC(C(=O)O)c1ccc(CC(C)C(F)(F)F)cc1 (centres unmarked) [Specimen II, 2-[p-(2-methyl-3,3,3-trifluoropropyl)phenyl]propionic acid] | – | – | 1040 mg/kg | – | 50% | 54% | 65% | – | 37% | 40%
